Data on five molecules can be found in patent US10919884B2, “Amide compounds for treatment of immune and inflammatory disorders” (Achillion Pharmaceuticals, Inc., priority 2015, dated 2021).

This test deals with Human Factor D (Homo sapiens (Human), UniProt P00746). Put plainly: Human Factor D Assay. The settings on record: Human Factor D purified from human serum, 80 nM; substrate Z-L-Lys-SBzl and DTNB 100 μM each; assay of Example 12. It is filed as biochemical. Here is the method: Example 12. Human Factor D Assay
Chain of Human Factor D (P00746 26-253): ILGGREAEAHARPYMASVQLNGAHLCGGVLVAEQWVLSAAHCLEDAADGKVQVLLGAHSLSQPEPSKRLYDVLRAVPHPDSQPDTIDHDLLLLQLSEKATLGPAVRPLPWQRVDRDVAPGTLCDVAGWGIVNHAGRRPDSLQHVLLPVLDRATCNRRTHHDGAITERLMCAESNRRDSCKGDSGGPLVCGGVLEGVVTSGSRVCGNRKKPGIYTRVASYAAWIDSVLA
Human Factor D (purified from human serum, Complement Technology, Inc.) at 80 nM final concentration is incubated with test compound at various concentrations for 5 minutes at room temperature in 50 mM Tris, 1 M NaCl, pH 7.5. A synthetic substrate Z-L-Lys-SBzl and DTNB (Ellman's reagent) are added to final concentrations of 100 μM each. Absorbance at 405 nm (A405) is recorded at 30 second intervals for 30 minutes using a microplate spectrophotometer. IC50 values are calculated by nonlinear regression of complement Factor D reaction rates as a function of test compound concentration.
The assay of Example 12 was used to determine the IC50's of the compounds. Other standard Factor D inhibition assays are also available.
`Cc1cccc(C[C@@H](O)[C@H]2C[C@@H](F)CN2C(=O)Cn2cc(C(N)=O)c3cc(NC(=O)N4CCCC(F)(F)C4)ccc32)n1` [Compound 2, 5-(3,3-difluoropiperidine-1-carboxamido)-1-(2-((2R,4R)-4-fluoro-2-((R)-1-hydroxy-2-(6-methylpyridin-2-yl)ethyl)pyrrolidin-1-yl)-2-oxoethyl)-1H-indole-3-carboxamide] gave an IC50 above 10 µM.

`Cc1cccc(NC(=O)[C@@H]2CCC(F)CCN2C(=O)Cn2cc(C(N)=O)c3cc(NC(=O)N4CCCC(F)(F)C4)ccc32)n1` (stereo partly drawn) [Compound 4, 5-(3,3-difluoropiperidine-1-carboxamido)-1-(2-((2S)-5-fluoro-2-((6-methylpyridin-2-yl)carbamoyl)azepan-1-yl)-2-oxoethyl)-1H-indole-3-carboxamide] had an IC50 above 10 µM.

`Cc1cccc(NC(=O)[C@@H]2CC=CCN2C(=O)Cn2cc(C(N)=O)c3cc(NC(=O)N4CCCC(F)(F)C4)ccc32)n1` [Compound 1, (S)-5-(3,3-difluoropiperidine-1-carboxamido)-1-(2-(6-((6-methylpyridin-2-yl)carbamoyl)-5,6-dihydropyridin-1(2H)-yl)-2-oxoethyl)-1H-indole-3-carboxamide]: the IC50 was above 10 µM.

On to `Cc1cccc(NC(=O)[C@@H]2CC=CCN2C(=O)Cn2cc(C(N)=O)c3cc(C(=O)NS(=O)(=O)C4CC4)ccc32)n1` [Compound 5, (S)-N5-(cyclopropylsulfonyl)-1-(2-(6-((6-methylpyridin-2-yl)carbamoyl)-5,6-dihydropyridin-1(2H)-yl)-2-oxoethyl)-1H-indole-3,5-dicarboxamide], for which the IC50 was above 10 µM.

As to `Cc1cccc(C[C@H](O)[C@@H]2C[C@@H](F)CN2C(=O)Cn2cc(C(N)=O)c3cc(NC(=O)N4CCCC(F)(F)C4)ccc32)n1` [Compound 3, 5-(3,3-difluoropiperidine-1-carboxamido)-1-(2-((2S,4R)-4-fluoro-2-((S)-1-hydroxy-2-(6-methylpyridin-2-yl)ethyl)pyrrolidin-1-yl)-2-oxoethyl)-1H-indole-3-carboxamide], the IC50 was above 10 µM.

The term IC50 denotes the midpoint of a concentration-inhibition curve. A higher IC50 goes with a need for much substance.
